According to patent US10683272B2 (THE JOHNS HOPKINS UNIVERSITY, priority 2014, dated 2020):

Experiment: radiation dosimetry (OLINDA/EXM) from baboon PET data
Format: Reference Adult Male based on baboon PET imaging data
Procedure: For each time-point, the activity concentration (in Bq/cm^3) was measured in each of the 14 delineated organs and multiplied by the organ volume to obtain the total activity per time point per organ. The measured values were then decay-corrected and divided by the baboon organ mass, determined by the CT density and volume from the drawn contours, and the injected radioactivity to obtain the fraction of initial radioactivity per gram (FIA/g) for each time point and each organ. The baboon FIA/g values were then converted to human FIA (per organ) using the following equation (Schwartz et al., 2011; Woodard et al., 1975): […]
That approach assumes that the concentration of activity in a particular tissue relative to the overall concentration in the whole body is preserved across species (i.e., organ concentration/total body concentration is the same for baboon and man). The resulting human FIA values were plotted as a function of time (nine data points) for each organ and fit to a bi-exponential expression: FIA(t)=A1.e^−(λ1^bio^.t)+A2.e^−(Δ2^bio^.t) (2)
where A1, A2, λ1bio, and λ2bio are fit parameters. The sum of A1 and A2 give the back-extrapolated, time-zero fraction of administered radioactivity in each organ, and λ1bio and λ2bio are the biological clearance constants. The equation for the time-integrated activity coefficient [TIAC, previously known as residence time (Bolch et al., 2009) for each source organ was obtained, as its name implies, by integrating equation (2) and introducing a physical decay term, λφ, which depends on the isotope used:
TIACs were calculated for ^90Y, ^177Lu and ^86Y, with their corresponding physical decay constants: ^90Y λφ=0.01083 h^−1 (T1/2=64.0 h); ^177Lu λφ=0.00429 h^−1 (T1/2=161.52 h) and ^86Y λφ=0.04702 h^−1 (T1/2=14.74 h), respectively voiding. Radiation absorbed doses were obtained by converting time-integrated activity to absorbed doses according to the MIRD absorbed fraction methodology (Bolch et al., 2009) through the use of the OLINDA/EXM software (Stabin et al., 2005). The TIAC for the urinary bladder was obtained using the MIRD bladder model implemented in OLINDA/EXM. Input to that model requires the whole-body TIAC, which was obtained from the equation FIA(t)=A. e^(−λ^bio^t) fitted to whole-body retention kinetics. The voiding interval was set to 2 h. The TIACs were then input into OLINDA/EXM (Stabin et al., 2005), and the resulting absorbed dose per unit of radioactivity obtained for the 14 organs. The specific kidney model in OLINDA/EXM was used to obtain the renal cortex dose values. The absorbed dose from organs external to the kidney was added to the renal cortex dose calculated from the internal kidney model. The specific prostate model was used for prostate self-dose, and external dose to the bladder was added as a surrogate for the whole body to prostate dose. The self-dose component of the absorbed dose per unit activity for the salivary glands was obtained using 3D-RD Monte Carlo (EGSnrc) and a human CT with delineated salivary glands. The cross-dose component was taken by assuming the same cross-dose for a like-sized organ (pancreas).
Measured activity concentration (in Bq/cm^3) values per time point per organ were decay-corrected and divided by the baboon organ mass, determined by the CT density and volume from the drawn contours, and the injected radioactivity to obtain the fraction of initial radioactivity per gram (FIA/g) for each time point and each organ. The baboon FIA/g values were then converted to human FIA (per organ) using the related equation (Olszewski et al., 2004; Schwartz et al., 2011). The resulting human FIA values were then plotted as a function of time and fit to a bi-exponential expression and the value for the time-integrated activity coefficient (TIAC, previously known as residence time (Woodard et al., 1975)) for each source organ was calculated. […]

Compound: O=C([O-])CN1CCN(CC(=O)[O-])CCN(CC(=O)[O-])C(Cc2ccc(NC(=S)NCCCCNC(=O)CCCCCCC(=O)NCCCC[C@H](NC(=O)N[C@@H](CCC(=O)O)C(=O)O)C(=O)O)cc2)CN(CC(=O)[O-])CC1.[86Y+3] (some centres unmarked) [^86Y-6]
- Organ absorbed dose, Adrenals (^86Y): 8.62E−02 mGy/MBq
- Organ absorbed dose, Brain (^86Y): 2.30E−02 mGy/MBq
- Organ absorbed dose, Breasts (^86Y): 4.52E−02 mGy/MBq
- Organ absorbed dose, Gallbladder wall (^86Y): 7.88E−02 mGy/MBq
- Organ absorbed dose, Heart wall (^86Y): 6.70E−02 mGy/MBq
- Organ absorbed dose, Kidneys (^86Y): 4.03E−01 mGy/MBq
- Organ absorbed dose, LLI wall (^86Y): 9.61E−02 mGy/MBq
- Organ absorbed dose, Liver (^86Y): 7.19E−02 mGy/MBq
- Organ absorbed dose, Lungs (^86Y): 5.98E−02 mGy/MBq
- Organ absorbed dose, Muscle (^86Y): 5.47E−02 mGy/MBq
- Organ absorbed dose, Osteogenic cells (^86Y): 7.19E−02 mGy/MBq
- Organ absorbed dose, Ovaries (^86Y): 9.48E−02 mGy/MBq
- Organ absorbed dose, Pancreas (^86Y): 8.09E−02 mGy/MBq
- Organ absorbed dose, Prostate (^86Y): 7.64E−02 mGy/MBq
- Organ absorbed dose, Red marrow (^86Y): 6.29E−02 mGy/MBq
- Organ absorbed dose, Renal cortex (^86Y): 4.24E−01 mGy/MBq
- Organ absorbed dose, Salivary glands (^86Y): 1.78E−01 mGy/MBq
- Organ absorbed dose, Skin (^86Y): 3.97E−02 mGy/MBq
- Organ absorbed dose, Small intestine (^86Y): 8.72E−02 mGy/MBq
- Organ absorbed dose, Spleen (^86Y): 7.23E−02 mGy/MBq
- Organ absorbed dose, Stomach wall (^86Y): 6.69E−02 mGy/MBq
- Organ absorbed dose, Testes (^86Y): 7.23E−02 mGy/MBq
- Organ absorbed dose, Thymus (^86Y): 5.38E−02 mGy/MBq
- Organ absorbed dose, Thyroid (^86Y): 5.07E−02 mGy/MBq
- Organ absorbed dose, ULI wall (^86Y): 8.56E−02 mGy/MBq
- Organ absorbed dose, Urinary bladder wall (^86Y): 6.17E−01 mGy/MBq
- Organ absorbed dose, Uterus (^86Y): 1.34E−01 mGy/MBq
- Time-integrated activity coefficient (residence time), Brain (^86Y): 1.41E−02 MBq-h/MBq
- Time-integrated activity coefficient (residence time), Heart contents (^86Y): 2.55E−02 MBq-h/MBq
- Time-integrated activity coefficient (residence time), Kidneys (^86Y): 4.08E−01 MBq-h/MBq
- Time-integrated activity coefficient (residence time), Liver (^86Y): 1.37E−01 MBq-h/MBq
- Time-integrated activity coefficient (residence time), Lungs (^86Y): 9.70E−02 MBq-h/MBq
- Time-integrated activity coefficient (residence time), Muscle (^86Y): 4.76E−01 MBq-h/MBq
- Time-integrated activity coefficient (residence time), Pancreas (^86Y): 6.37E−03 MBq-h/MBq
- Time-integrated activity coefficient (residence time), Prostate (^86Y): 1.15E−03 MBq-h/MBq
- Time-integrated activity coefficient (residence time), Remainder (^86Y): 3.64 MBq-h/MBq
- Time-integrated activity coefficient (residence time), Renal cortex (^86Y): 3.23E−01 MBq-h/MBq
- Time-integrated activity coefficient (residence time), Salivary Glands (^86Y): 4.45E−02 MBq-h/MBq
- Time-integrated activity coefficient (residence time), Small intestine (^86Y): 9.31E−03 MBq-h/MBq
- Time-integrated activity coefficient (residence time), Spleen (^86Y): 7.41E−03 MBq-h/MBq
- Time-integrated activity coefficient (residence time), Stomach (^86Y): 6.44E−03 MBq-h/MBq
- Time-integrated activity coefficient (residence time), ULI (^86Y): 1.99E−02 MBq-h/MBq
- Time-integrated activity coefficient (residence time), Ur. bladder contents (^86Y): 7.41E−01 MBq-h/MBq
- effective dose (^86Y, calculated in OLINDA/EXM): 0.099 mSv/MBq
- Organ absorbed dose, Adrenals (^90Y): 3.46E−02 mGy/MBq
- Organ absorbed dose, Brain (^90Y): 6.79E−03 mGy/MBq
- Organ absorbed dose, Breasts (^90Y): 3.46E−02 mGy/MBq
- Organ absorbed dose, Gallbladder wall (^90Y): 3.46E−02 mGy/MBq
- Organ absorbed dose, Heart wall (^90Y): 5.33E−02 mGy/MBq
- Organ absorbed dose, Kidneys (^90Y): 1.13 mGy/MBq
- Organ absorbed dose, LLI wall (^90Y): 3.46E−02 mGy/MBq
- Organ absorbed dose, Liver (^90Y): 4.99E−02 mGy/MBq
- Organ absorbed dose, Lungs (^90Y): 6.57E−02 mGy/MBq
- Organ absorbed dose, Muscle (^90Y): 1.32E−02 mGy/MBq
- Organ absorbed dose, Osteogenic cells (^90Y): 5.26E−02 mGy/MBq
- Organ absorbed dose, Ovaries (^90Y): 3.46E−02 mGy/MBq
- Organ absorbed dose, Pancreas (^90Y): 4.64E−02 mGy/MBq
- Organ absorbed dose, Prostate (^90Y): 4.78E−02 mGy/MBq
- Organ absorbed dose, Red marrow (^90Y): 2.41E−02 mGy/MBq
- Organ absorbed dose, Renal cortex (^90Y): 1.19 mGy/MBq
- Organ absorbed dose, Salivary glands (^90Y): 2.79E−01 mGy/MBq
- Organ absorbed dose, Skin (^90Y): 3.46E−02 mGy/MBq
- Organ absorbed dose, Small intestine (^90Y): 4.29E−02 mGy/MBq
- Organ absorbed dose, Spleen (^90Y): 1.64E−02 mGy/MBq
- Organ absorbed dose, Stomach wall (^90Y): 3.46E−02 mGy/MBq
